Measurements reported in patent US10251909B2 (Board of Regents, the University of Texas System, priority 2007, dated 2019).
Like-named read-outs stand apart in the source and are kept apart here.

Tests used:
[1] = cited from earlier work
[2] = cited from earlier work; remark: listed apart in the source
[3] = both groups, before potassium supplementation; cited from earlier work
[4] = thirty subjects with hypomagnesemia on thiazide alone; cited from earlier work
[5] = Blood pressure during 5 months of KMgCitrate or potassium chloride with hydrochlorothiazide, 21 normal subjects (Example 1); format: in vivo, Human; conditions: for fall in diastolic blood pressure (supine) / fall in systolic blood pressure (supine): 42 mEq K per day with hydrochlorothiazide 50 mg/day, monthly for 5 months versus baseline, normal subjects; for effect on blood pressure: normal subjects given hydrochlorothiazide concurrently for 5 months, as early as one month and as long as 5 months
From the text: FIG. 2 graphically illustrates the effect of KMgCitrate (K4MgCit2) on blood pressure in 21 normal subjects. Changes in systolic and diastolic blood pressures from baseline (before treatment) occurring during 5 months of treatment with potassium chloride (KCl) or KMgCitrate with hydrochlorothiazide are shown individually. * p<0.05 from time zero, ** p<0.01.
In the recently published study by Odvina et al. (Am J Therap 13: 101-108, 2006) that examined the value of KMgCitrate in the prevention of thiazide-induced hypomagnesemia, the unpublished data on blood pressure were extracted. Twenty-one normal subjects participated in the trial. All were started on hydrochorothiazide 50 mg/day. Ten subjects took simultaneously KMgCitrate at a dose of 42 mEq K and […] per day, while 11 subjects received potassium chloride (42 mEq/day). Supine blood pressures were taken before and each month for 5 months. FIG. 3 compares the systolic and diastolic blood pressures between the two groups.

[6] = Insulin responsiveness by hyperinsulinemic euglycemic pump procedure, two subjects with uric acid stones (Example 2); format: in vivo, Human; conditions: 49 mEq K, 24.5 mEq Mg per day for 4 weeks
Experimental: In two subjects with uric acid stones, insulin responsiveness was determined before and after KMgCitrate treatment (49 mEq K, 24.5 mEq Mg per day for 4 weeks) by a hyperinsulinemic euglycemic pump procedure. During intravenous infusion of insulin, glucose was infused at a rate sufficient to maintain a constant glucose concentration. Insulin responsiveness was determined from the glucose disposal rate.

[7] = Tolerability of KMgCitrate; format: in vivo; conditions: usual dosage about 40 mEq potassium, 20 mEq magnesium, 60 mEq citrate
[8] = cited from earlier work; remark: listed apart in the source
[9] = cited from earlier work; remark: listed apart in the source
[10] = Odvina, 42 mEq K qd; cited from earlier work
[11] = in vivo; cited from earlier work
[12] = during therapy versus control phase, constant metabolic diet
[13] = during therapy, constant metabolic diet
[14] = 49 mEq K, 24.5 mEq Mg/day for 3 weeks while continuing hydrochlorothiazide 50 mg/day

SMILES: O=C([O-])CC(O)(CC(=O)[O-])C(=O)[O-].[K+].[K+].[K+] [Potassium citrate, potassium citrate, reference compound]
- urinary citrate [1, 12]: did not raise pH or citrate as much
- urinary pH [1, 12]: did not raise pH or citrate as much
- urinary magnesium excretion [1, 13]: did not augment

SMILES: NS(=O)(=O)c1cc2c(cc1Cl)NCNS2(=O)=O [thiazide, hydrochlorothiazide]
- serum potassium concentration on thiazide alone ([2]; hydrochlorothiazide 50 mg/day for 3 weeks, normal subjects): decreased significantly to below the normal range in most subjects
- serum potassium concentration on thiazide alone [3]: decreased significantly
- serum magnesium concentration during thiazide alone versus before treatment [4]: significantly lower

SMILES: O=C([O-])CC(O)(CC(=O)[O-])C(=O)[O-].O=C([O-])CC(O)(CC(=O)[O-])C(=O)[O-].[K+].[K+].[K+].[K+].[Mg+2] [KMgCitrate, tetrapotassium monomagnesium dicitrate]
- fall in diastolic blood pressure (supine) [5]: significant only in the KMgCitrate group
- fall in systolic blood pressure (supine) [5]: significant only in the KMgCitrate group
- effect on blood pressure [5]: significant reduction
- glucose disposal rate after treatment, second patient ([6]; 2.2 mg/m^2/min before treatment): 2.8 mg/m^2/min
- glucose disposal rate after treatment, first patient ([6]; 3.2 mg/m^2/min before treatment): 4.3 mg/m^2/min
- insulin responsiveness ([6]; hyperinsulinemic euglycemic pump): improved insulin responsiveness
- tolerability / side effect profile [7]: well tolerated, with a low side effect profile
- relative risk of treatment failure compared with placebo ([8]; 42 mEq K, 21 mEq Mg/day for up to 3 years): 0.16 (95% confidence interval of 0.05-0.46)
- patients in whom new calculi formed ([8]; 42 mEq K, 21 mEq Mg/day for up to 3 years, placebo 63.6%): 12.6%
- stone formation rate ([8]; randomized trial, patients with calcium oxalate nephrolithiasis): dramatically reduced
- peak excretion rate of urinary potassium ([9]; single oral load (KMgCitrate 49 mEq potassium, 24.5 mEq magnesium, 73.5 mEq citrate), timed urine 24 hours, 15 normal volunteers): comparable to that of potassium citrate and potassium chloride
- peak excretion rate and peak time of urinary magnesium ([9]; single oral load, 24.5-25 mEq magnesium, 15 normal volunteers): comparable between KMgCitrate and magnesium citrate
- cumulative increment in urinary magnesium ([9]; single oral load, 24.5-25 mEq magnesium, potassium citrate as control): equivalent between KMgCitrate and magnesium citrate
- peak time (time to reach peak excretion rate) of urinary potassium ([9]; single oral load, 49-50 mEq potassium, 15 normal volunteers): about 4 hours
- Increment in Urinary Magnesium ([1]; Pak, 49 mEq K qd): 44 mg/day
- Increment in Urinary Potassium ([1]; Pak, 49 mEq K qd): 51 mEq/day
- alkali load ([1]; at the same dose of potassium, versus potassium citrate): greater alkali load than potassium citrate
- urinary pH [1, 12]: rose from the control phase
- urinary potassium [1, 12]: rose from the control phase
- inhibitor activity of brushite [1, 13]: increased
- inhibitor activity of calcium oxalate [1, 13]: increased
- urinary saturation of calcium oxalate (activity product) [1, 13]: reduced
- urinary saturation of uric acid (content of undissociated uric acid) [1, 13]: reduced
- serum potassium concentration [2, 14]: increased significantly
- serum potassium determinations reaching normal limits [2, 14]: 81.7%
- Increment in Urinary Magnesium ([2]; Ruml, 49 mEq K qd): 38 mg/day
- Increment in Urinary Potassium ([2]; Ruml, 49 mEq K qd): 33 mEq/day
- Increment in Urinary Magnesium [10]: 57 to 63 mg/day
- Increment in Urinary Potassium [10]: 30–50 mEq/day

SMILES: [Cl-].[K+] [potassium chloride, reference compound]
- fall in diastolic blood pressure (supine) [5]: trend for systolic and diastolic blood pressures to decrease
- fall in systolic blood pressure (supine) [5]: trend for systolic and diastolic blood pressures to decrease
- effect on blood pressure [5]: no statistically significant effect
- urinary calcium [11]: has no effect
